Results: article PMC4527730, “A Pan-GTPase Inhibitor as a Molecular Probe” (PLoS ONE, 2015)
Values joined by “and” are separate entries in the source; they are usually repeats but may differ in a detail not shown here. Equal entries are not always repeated. Where two headings read alike, the source gives them in different places.

Tests used:
[1] = test system: EGFR degradation regulated by Rab GTPases, SCC-12F cells; experiment: EGFR degradation in SCC-12F cells; type: cell-based; conditions: EGF 20 nM, 0-120 min, versus DMSO
Method: SCC-12F cells were seeded in 12-well plates at 0.12 x 10^6 cells/well and allowed to attach overnight. On the day of the experiment, the cells were starved in serum free medium containing 25 μg/mL cycloheximide for 2 h before compounds at different concentrations were added. The cells were treated with compound or DMSO for 0.5 h followed by the addition of ligand EGF at 20 nM. At time 0, 15, 30, 60, and 120 min, the suspension medium was removed and the cells were quickly washed with cold PBS and frozen at -80°C. For electrophoresis and blotting, CellLyticM Cell Lysis buffer containing protease inhibitor cocktails was added to the frozen cells and the protein concentrations were quantified using the Bradford assay. For SDS-PAGE, 10 μg of protein was loaded on each lane. After transblotting, the nitrocellulose membrane was probed with Anti-EGFR and Anti-actin primary antibody and secondary goat anti-rabbit IgG antibody with conjugated peroxidase. Actin served as a loading control. After adding the substrate SuperSignal West Dura, specific band signal was detected with ChemiDoc XRS+ molecular imager and the intensity was quantified using Image Lab software. Experiments were carried out either in duplicate and repeated or in triplicate. Results are given as the ratios of EGFR/actin at time t and EGFR/actin at time 0.

[2] = test system: integrin VLA-4 on U937 FPRΔST cells; experiment: Integrin activation assay (LDV-FITC binding); type: cell-based; conditions: LDV-FITC 4 nM, fMLFF 100 nM
Method: The procedure followed the protocols described previously. U937 FPRΔST cells (0.4~0.8 x 10^6 cells/mL) were continuously stirred with a magnetic stir bar at 500 rpm in a test tube. The fluorescence was recorded on a FACScan flow cytometer. The baseline fluorescence of the cells was established for 30 s. Then LDV-FITC at 4 nM was added. After the fluorescence stabilized at ~120 s, the chemotactic ligand fMLFF at 100 nM was added for stimulation. […] All the concentrations given were the final concentrations. The percent inhibition was calculated according to Equation 1 (Supporting Information).

[3] = test system: H358 cells; experiment: CellTiter-Glo viability assay; type: cell-based; conditions: 48 h, compared with U937 FPRΔST control cells
Method: (§1) Cells were plated in a 96-well plate at 2000 cells per well and allowed to incubate overnight. Compound 1 or the same volume of DMSO was added on the second day. Viability was examined after 48 h. Data were collected from at least triplicate samples. Results were reported as viability treated/viability untreated (DMSO control). To evaluate apoptosis, the PE Annexin V Apoptosis Kit I was used. In 6-well plates, H358 cells were seeded at 50% confluence, while U937 FPRΔST cells were at 0.02 x 10^6 /mL. After overnight incubation, the cells were treated with compound 1 or DMSO. At 24 h or 48 h, cells were washed with PBS, and resuspended in 100 uL annexin-V binding buffer. After staining with annexin-V-FITC and 7-AAD, cells were analyzed on an Accuri C6 flow cytometer. At least 7,000 cells were measured per individual sample. The annexin^+AAD^- cells are defined as cells undergoing apoptosis. Data were collected from duplicate samples and the experiments were repeated. Results are given as the ratios of the apoptotic populations between the compound-treated and the DMSO-treated cells.

[4] = test system: H358 cells; experiment: PE Annexin V apoptosis assay; type: cell-based; conditions: 24 h or 48 h
Method: as §1

[5] = test system: U937 FPRΔST cells; experiment: PE Annexin V apoptosis assay; type: cell-based; conditions: 24 h or 48 h
Method: as §1

[6] = Solubility in PBS and assay media; type: physicochemical
Method: (§2) page 7: conclusion, the available data support the idea that compound CID1067700 has non-classical competitive character. […] Solubility was measured in phosphate buffered saline (PBS) at room temperature (23 °C). PBS by definition is 137 mM NaCl, 2.7 mM KCl, 10 mM sodium phosphate dibasic, 2 mM potassium phosphate [monobasic and a pH of 7.4. Detection was based on UV absorbance. […] Solubility was also assessed in the each of the four media used in the individual assays. […] Table 1S. […] Stability, depicted as closed circles in the graph, was assessed at room temperature (23 °C) in PBS (no antioxidants or other protectants and DMSO concentration below 0.1%). Stability data is depicted in Fig. S8 showing the loss of compound with time over a 48 h period with a minimum of 6 time points and providing the percent remaining compound at end of the 48 h period. Under these conditions, 77% of 1 remains after 48 hours. The degradation has not been further characterized.

[7] = Stability in PBS; type: physicochemical; conditions: 23 °C, after 48 hours
Method: as §2

[8] = test system: GTPases (H-Ras, H-Ras G12V, Cdc42, Cdc42 Q61L, Rac1, Rac1 Q61L, RhoA, Rab7); experiment: Multiplex dose-response assay, statements across the GTPase panel
Method: (§3) Briefly, individual GST-GTPases were separately attached to glutathione microsphere beads that were labeled with varying intensity of red fluorescent dye, and subsequently combined. The buffer contains 30 mM HEPES (pH 7.2), 150 mM KCl, 20 mM NaCl, 0.1% BSA, 1 mM DTT, 1 mM EDTA and 0.1% NP-40. For Rho A and Rac1, 1 mM EDTA was replaced with 1 mM MgCl2 to stabilize the protein. […] To study whether the compounds are slow binders, BODIPY^- FL GTP was added either immediately or 2 h after compound addition. […] The curves were fitted to the sigmoidal dose-response equation using GraphPad Prism. Percent response was calculated as the ratio of (sample MCF–negative control MCF) / (positive control MCF–negative control MCF).

[9] = target: T1, Cdc42 (Homo sapiens, UniProt P60953); experiment: GTPase and effector interaction assay (PAK-PBD beads), HeLa cell lysates; conditions: HeLa cells, 10 μM, 2 h, EGF 10 ng/mL 2 min
T1 sequence (P60953 whole entry): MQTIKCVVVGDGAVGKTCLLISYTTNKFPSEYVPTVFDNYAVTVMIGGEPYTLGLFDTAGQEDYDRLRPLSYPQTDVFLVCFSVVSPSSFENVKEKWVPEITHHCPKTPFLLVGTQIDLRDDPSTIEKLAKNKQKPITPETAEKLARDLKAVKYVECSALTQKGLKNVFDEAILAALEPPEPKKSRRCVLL
Method: GST effector chimeras consisting of the minimal GTPase binding domain were p21-activated kinase p21 binding domain (PAK-PBD) for Cdc42, Raf1 Ras-binding domain (Raf1-RBD) for Ras, and Rab-interacting lysosomal protein (RILP) for Rab7 binding measurements.
Superdex peptide beads (13 μm, from GE Healthcare) derivatized with GSH were coated with effector proteins to saturation. […] The effector-coated glutathione beads (20,000 beads/assay) were incubated with 200 μL cell lysate from a single treated well for 1 h at 4°C. […] The bead associated fluorescence representing bound GTPase was quantified on an Accuri C6 flow cytometer.

[10] = target: H-Ras G12V (Homo sapiens, UniProt P01112, G12V); experiment: Multiplex bead-based flow cytometry dose-response of fluorescent guanine nucleotide binding; conditions: EC50 H-Ras G12V
Sequence of H-Ras G12V (P01112 whole entry G12V): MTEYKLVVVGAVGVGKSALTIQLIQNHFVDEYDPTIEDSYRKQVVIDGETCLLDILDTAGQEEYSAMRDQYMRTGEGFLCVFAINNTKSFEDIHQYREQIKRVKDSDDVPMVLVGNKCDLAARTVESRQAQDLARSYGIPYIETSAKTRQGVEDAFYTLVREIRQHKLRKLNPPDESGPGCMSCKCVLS
Method: (§4) Briefly, individual GST-GTPases were separately attached to glutathione microsphere beads that were labeled with varying intensity of red fluorescent dye, and subsequently combined. The buffer contains 30 mM HEPES (pH 7.2), 150 mM KCl, 20 mM NaCl, 0.1% BSA, 1 mM DTT, 1 mM EDTA and 0.1% NP-40. […] To study whether the compounds are slow binders, BODIPY^- FL GTP was added either immediately or 2 h after compound addition. […] The curves were fitted to the sigmoidal dose-response equation using GraphPad Prism. Percent response was calculated as the ratio of (sample MCF–negative control MCF) / (positive control MCF–negative control MCF).

[11] = target: T1, Cdc42; experiment: as above
Method: as §4

[12] = target: RhoA (Homo sapiens, UniProt P61586); experiment: as above; conditions: EC50 RhoA
Sequence of RhoA (P61586 whole entry): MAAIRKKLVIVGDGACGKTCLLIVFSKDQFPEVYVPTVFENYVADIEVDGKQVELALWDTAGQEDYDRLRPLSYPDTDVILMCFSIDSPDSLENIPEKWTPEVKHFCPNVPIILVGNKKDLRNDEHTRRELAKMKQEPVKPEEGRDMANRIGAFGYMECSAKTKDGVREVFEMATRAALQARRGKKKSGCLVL
Method: as §3

[13] = concentration dependence on BODIPY-FL GDP

CC1(C)Cc2c(sc(NC(=S)NC(=O)c3ccccc3)c2C(=O)O)CO1 [Compound 1]
EGFR degradation [1]: delayed EGFR degradation | integrin VLA-4 activation (LDV-FITC binding after fMLFF) [2]: caused diminished binding | viability [3]: decreased the viability of H358 cells more than the U937 FPRΔST cells | apoptosis [4]: time-dependent apoptosis increase | apoptosis increase [5]: absent | solubility ([6]; Dose Response-buffer (HEPES buffer), 23 °C, aqueous with cosolvent or surfactant or cyclodextrin, 30mM HEPES, pH 7.5, 100mM KCl, 20mM NaCl, 0.01% (v/v) NP-40, read-out: Solubility, Dose Response-buffer): > 68.1 µg/mL and > 174 µM | solubility ([6]; EGFR degradation assay medium, DMEM/F-12, read-out: Solubility, EGFR degradation assay medium): > 116 µg/mL and > 297 µM | solubility ([6]; LDV-FITC assay buffer, RPMI 1640 + 10% HI-FBS, read-out: Solubility, LDV-FITC assay buffer): > 116 µg/mL and > 297 µM | solubility ([6]; phosphate buffered saline (PBS), PBS pH 7.4, 23 °C, read-out: PBS solubility): > 116 µg/mL and > 297 µM | compound remaining [7]: 77% | inhibitory activity on BODIPY-FL GTP binding across all GTPases tested (in words) ([8]; SAR versus compound 1): inhibited BODIPY^- FL GTP binding to all the GTPases tested in a dose-dependent manner | slow binding behaviour ([8]; two-hour incubation or no incubation before BODIPY-FL GTP): not a slow binder | level of active Cdc42 after EGF stimulation [9]: below the basal levels | EC50 ([10]; BODIPY-FL GTP binding, 2 h at 4°C): 0.052 ± 0.044 µM | EC50 [10, 13]: 0.26 µM | EC50 ([11]; EC50 Cdc42, BODIPY-FL GTP binding, 2 h at 4°C): 1.09 ± 1.62 µM | EC50 ([11]; EC50 Cdc42, concentration dependence on BODIPY-FL GDP): 0.42 µM | EC50 ([11]; EC50 Cdc42_1, with 2 h incubation before BODIPY-FL GTP, Cdc42 purified in house): 2.06 ± 0.038 µM | EC50 ([11]; EC50 Cdc42_1, without incubation before BODIPY-FL GTP, Cdc42 purified in house): 2.23 ± 1.47 µM | EC50 ([11]; EC50 Cdc42_2, with 2 h incubation before BODIPY-FL GTP, Cdc42 from Cytoskeleton): 3.71 ± 0.039 µM | EC50 ([11]; EC50 Cdc42_2, without incubation before BODIPY-FL GTP, Cdc42 from Cytoskeleton): 4.46 ± 2.63 µM | EC50 ([12]; BODIPY-FL GTP binding, 2 h at 4°C, 1 mM MgCl2): 0.062 ± 0.049 µM | EC50 [12, 13]: 0.1 µM
